Reference: PubChem BioAssay (NCI)
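How tested: cells in 96-well plates exposed to compound for 48 hours at five concentrations. TGI: concentration producing complete growth inhibition.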

Columns and labels:
Test in all cases: NCI-60 cell line screen, 48 h
[1] = tested on: NCI-H522 lung
[2] = tested on: DU-145 prostate
[3] = tested on: SN12C renal
[4] = tested on: MCF7 breast
[5] = tested on: RXF 393 renal
[6] = tested on: RPMI-8226 leukemia
[7] = tested on: HT29 colon
[8] = tested on: CAKI-1 renal
[9] = tested on: ACHN renal
[10] = tested on: M14 melanoma
[11] = tested on: OVCAR-8 ovarian
[12] = tested on: SK-MEL-2 melanoma
[13] = tested on: HOP-92 NSCLC
[14] = tested on: SK-MEL-28 melanoma
[15] = tested on: SNB-75 CNS
[16] = tested on: HS 578T breast
[17] = tested on: TK-10 renal
[18] = tested on: NCI-H226 lung
[19] = tested on: IGROV1 ovarian
[20] = tested on: SNB-19 CNS
[21] = tested on: MOLT-4 leukemia
[22] = tested on: SK-OV-3 ovarian
[23] = tested on: SR leukemia
[24] = tested on: BT-549 breast
[25] = tested on: A549 NSCLC
[26] = tested on: OVCAR-3 ovarian
[27] = tested on: OVCAR-5 ovarian
[28] = tested on: UACC-62 melanoma
[29] = tested on: OVCAR-4 ovarian
[30] = tested on: UO-31 renal
[31] = tested on: T-47D breast
[32] = tested on: NCI-H23 lung
[33] = tested on: SF-539 CNS
[34] = tested on: U251 CNS
[35] = tested on: LOX IMVI melanoma
[36] = tested on: MALME-3M melanoma
[37] = tested on: SK-MEL-5 melanoma
[38] = tested on: MDA-MB-435
[39] = tested on: EKVX NSCLC
[40] = tested on: MDA-MB-231 breast
[41] = tested on: A498 renal
[42] = tested on: HOP-62 NSCLC
[43] = tested on: SF-295 CNS
[44] = tested on: SF-268 CNS
[45] = tested on: HCT-116 colon
[46] = tested on: HCT-15 colon
[47] = tested on: PC-3 prostate
[48] = tested on: UACC-257 melanoma
[49] = tested on: MDA-N
[50] = tested on: COLO 205 colon
[51] = tested on: NCI/ADR-RES ovarian
[52] = tested on: 786-0 renal
[53] = tested on: KM12 colon
[54] = tested on: K-562 leukemia
[55] = tested on: NCI-H460 lung
[56] = tested on: SW-620 colon
[57] = tested on: HL-60(TB) leukemia
[58] = tested on: HCC-2998 colon

With `O=C(/C=C/c1ccc(O)c(O)c1)c1cc(O)cc(O)c1` the TGI [1] was 3.73 µM, the TGI [2] was 44.3 µM and the TGI [3] was 26.2 µM. It also gave a TGI [4] of 12.7 µM, a TGI [5] of 22.8 µM and a TGI [6] of over 100 µM. It also gave a TGI [7] of 39 µM, a TGI [8] of over 100 µM and a TGI [9] of 28.9 µM. It also gave a TGI [10] of 26.9 µM, a TGI [11] of 32.8 µM and a TGI [12] of 28.2 µM. It also gave a TGI [13] of 26.8 µM, a TGI [14] of 31.2 µM and a TGI [15] of 34.5 µM. The TGI [16] was 70.5 µM, the TGI [17] was 39.7 µM and the TGI [18] was 51.5 µM. It also gave a TGI [19] of 27.5 µM, a TGI [20] of 28.5 µM and a TGI [21] of over 100 µM. The TGI [22] was 42.9 µM, the TGI [23] was over 100 µM and the TGI [24] was 24.7 µM. For the same molecule, the TGI [25] was over 100 µM, the TGI [26] was 26.4 µM and the TGI [27] was 28.9 µM. For the same molecule, the TGI [28] was 26.1 µM, the TGI [29] was 22.2 µM and the TGI [30] was 22.6 µM. The TGI [31] was 29.3 µM, the TGI [32] was 26.4 µM and the TGI [33] was 20.7 µM. It also gave a TGI [34] of 22.7 µM, a TGI [35] of 18.9 µM and a TGI [36] of 27.6 µM. The TGI [37] was over 100 µM, the TGI [38] was 20.3 µM and the TGI [39] was 57.4 µM. For the same molecule, the TGI [40] was 28.8 µM, the TGI [41] was 33.4 µM and the TGI [42] was 36.6 µM. It also gave a TGI [43] of 40.1 µM, a TGI [44] of 42.8 µM and a TGI [45] of 25.6 µM. It also gave a TGI [46] of 29.2 µM, a TGI [47] of 28.5 µM and a TGI [48] of 23 µM. The TGI [49] was 20.5 µM, the TGI [50] was 31.1 µM and the TGI [51] was 47.7 µM. For the same molecule, the TGI [52] was 26.6 µM.
Work on `c1cc(CNCCN2CCNCC2)ccn1` yielded a TGI [1] of over 100 µM, a TGI [53] of over 100 µM and a TGI [2] of over 100 µM. It also gave a TGI [3] of over 100 µM, a TGI [4] of over 100 µM and a TGI [5] of over 100 µM. The TGI [6] was over 100 µM, the TGI [7] was over 100 µM and the TGI [8] was over 100 µM. It also gave a TGI [9] of over 100 µM, a TGI [10] of over 100 µM and a TGI [11] of over 100 µM. It also gave a TGI [12] of over 100 µM, a TGI [13] of over 100 µM and a TGI [14] of over 100 µM. It also gave a TGI [15] of over 100 µM, a TGI [16] of over 100 µM and a TGI [17] of 86.7 µM. It also gave a TGI [18] of over 100 µM, a TGI [19] of over 100 µM and a TGI [20] of over 100 µM. For the same molecule, the TGI [21] was over 100 µM, the TGI [22] was over 100 µM and the TGI [23] was over 100 µM. It also gave a TGI [24] of over 100 µM, a TGI [25] of over 100 µM and a TGI [26] of over 100 µM. It also gave a TGI [54] of over 100 µM, a TGI [27] of over 100 µM and a TGI [55] of over 100 µM. It also gave a TGI [28] of over 100 µM, a TGI [29] of over 100 µM and a TGI [30] of over 100 µM. It also gave a TGI [31] of over 100 µM, a TGI [32] of over 100 µM and a TGI [33] of over 100 µM. It also gave a TGI [34] of over 100 µM, a TGI [35] of over 100 µM and a TGI [36] of over 100 µM. The TGI [37] was over 100 µM, the TGI [38] was over 100 µM and the TGI [39] was over 100 µM. For the same molecule, the TGI [40] was over 100 µM, the TGI [41] was over 100 µM and the TGI [42] was over 100 µM. The TGI [43] was over 100 µM, the TGI [44] was over 100 µM and the TGI [45] was over 100 µM. It also gave a TGI [46] of over 100 µM, a TGI [47] of over 100 µM and a TGI [48] of over 100 µM. The TGI [49] was over 100 µM, the TGI [50] was over 100 µM and the TGI [56] was over 100 µM. It also gave a TGI [51] of over 100 µM and a TGI [52] of over 100 µM.
In the case of `COC(=O)CCCC(=O)O`, the TGI [1] was over 100 µM, the TGI [53] was over 100 µM and the TGI [2] was over 100 µM. It also gave a TGI [3] of over 100 µM, a TGI [4] of over 100 µM and a TGI [5] of over 100 µM. The TGI [7] was over 100 µM, the TGI [8] was over 100 µM and the TGI [9] was over 100 µM. The TGI [10] was over 100 µM, the TGI [11] was over 100 µM and the TGI [12] was over 100 µM. The TGI [13] was over 100 µM, the TGI [14] was over 100 µM and the TGI [15] was over 100 µM. The TGI [16] was over 100 µM, the TGI [17] was over 100 µM and the TGI [18] was over 100 µM. The TGI [19] was over 100 µM, the TGI [20] was over 100 µM and the TGI [21] was over 100 µM. The TGI [23] was over 100 µM, the TGI [24] was over 100 µM and the TGI [25] was over 100 µM. For the same molecule, the TGI [26] was over 100 µM, the TGI [27] was over 100 µM and the TGI [55] was over 100 µM. The TGI [28] was over 100 µM, the TGI [29] was over 100 µM and the TGI [30] was over 100 µM. It also gave a TGI [31] of over 100 µM, a TGI [32] of over 100 µM and a TGI [34] of over 100 µM. The TGI [35] was over 100 µM, the TGI [36] was over 100 µM and the TGI [37] was over 100 µM. It also gave a TGI [38] of over 100 µM, a TGI [39] of over 100 µM and a TGI [40] of over 100 µM. The TGI [41] was over 100 µM, the TGI [42] was over 100 µM and the TGI [43] was over 100 µM. For the same molecule, the TGI [44] was over 100 µM, the TGI [45] was over 100 µM and the TGI [46] was over 100 µM. The TGI [47] was over 100 µM, the TGI [48] was over 100 µM and the TGI [49] was over 100 µM. The TGI [50] was over 100 µM, the TGI [56] was over 100 µM and the TGI [51] was over 100 µM. The TGI [52] was over 100 µM.
`N#C/C(=C\NC(=S)c1ccncc1)c1nc2ccccc2s1` gave a TGI [1] of over 100 µM, a TGI [53] of over 100 µM and a TGI [2] of over 100 µM. The TGI [3] was over 100 µM, the TGI [4] was over 100 µM and the TGI [5] was over 100 µM. It also gave a TGI [6] of over 100 µM, a TGI [7] of over 100 µM and a TGI [8] of over 100 µM. The TGI [9] was over 100 µM, the TGI [10] was over 100 µM and the TGI [11] was over 100 µM. It also gave a TGI [12] of over 100 µM, a TGI [13] of over 100 µM and a TGI [14] of over 100 µM. For the same molecule, the TGI [15] was over 100 µM, the TGI [57] was over 100 µM and the TGI [16] was over 100 µM. The TGI [17] was over 100 µM, the TGI [18] was over 100 µM and the TGI [19] was over 100 µM. It also gave a TGI [20] of over 100 µM, a TGI [21] of over 100 µM and a TGI [22] of over 100 µM. It also gave a TGI [23] of over 100 µM, a TGI [24] of over 100 µM and a TGI [25] of over 100 µM. For the same molecule, the TGI [58] was over 100 µM, the TGI [26] was over 100 µM and the TGI [54] was over 100 µM. The TGI [27] was over 100 µM, the TGI [55] was over 100 µM and the TGI [28] was over 100 µM. The TGI [29] was over 100 µM, the TGI [30] was over 100 µM and the TGI [31] was over 100 µM. It also gave a TGI [32] of over 100 µM, a TGI [33] of over 100 µM and a TGI [34] of over 100 µM. For the same molecule, the TGI [35] was over 100 µM, the TGI [37] was over 100 µM and the TGI [38] was over 100 µM. For the same molecule, the TGI [39] was over 100 µM, the TGI [40] was over 100 µM and the TGI [41] was over 100 µM. The TGI [42] was over 100 µM, the TGI [43] was over 100 µM and the TGI [44] was over 100 µM. It also gave a TGI [45] of over 100 µM, a TGI [46] of over 100 µM and a TGI [47] of over 100 µM. For the same molecule, the TGI [48] was over 100 µM, the TGI [49] was over 100 µM and the TGI [50] was over 100 µM. The TGI [56] was over 100 µM, the TGI [51] was over 100 µM and the TGI [52] was over 100 µM.
